Target: KRas (Homo sapiens, UniProt P01116, G12C)
Test: KRas degradation in SW1573 cells by Western blot, normalized to GAPDH (data of Table 14)
Format: cell-based
Conditions: SW1573 cells
Procedure: Cell Lines, Antibodies, and Reagents. NCI-H2030 (CRL-5914) and SW1573 (CRL-2170) cells were purchased from ATCC. Both cell lines are homozygous for the G12C mutation in KRas. NCI-H2030 cells were cultured in RPMI-1640 medium containing 1% penicillin-streptomycin and 10% fetal bovine serum (FBS). SW1573 cells were cultured in DMEM containing 1% penicillin-streptomycin and 10% FBS. The KRas detection antibody (Cat. No. LS-C175665) was purchased from LifeSpan Biosciences and was used at a dilution of 1:2000. GAPDH was detected using an antibody purchased from Cell Signaling Technology (Cat. No. 5174) and was diluted 1:3000. Secondary anti-mouse and anti-rabbit detection antibodies were purchased from Cell Signaling Technology (Cat. Nos. 7076 and 7074, respectively).
Compound Treatment and Western Blotting of the Data of Table 14. Either NCI-H2030 or SW1573 cells were plated in 12-well plates and allowed to adhere overnight at 37° C. in an incubator containing 5% CO2. The following day, the medium was replaced with the appropriate medium lacking FBS to induce starvation. Cells were returned to the incubator for an additional 24 hours following media exchange. […] Cells were treated with VHL-based compounds for 24 hours and all other compounds for 72 hours. Following treatment, cells were lysed in RIPA buffer (Thermo Fisher Cat. No. 89900) containing phosphatase (Thermo Fisher Cat. No. 1861277) and protease (Thermo Fisher Cat. No. 78429) inhibitor cocktails. Lysates were cleared at 13,000 rpm for 15 minutes and supernatants were assayed for total protein concentration using the Pierce BCA assay system (Thermo Fisher Cat. No. 23225). For each sample, 10 μg total protein was resolved on a 12% Bis-Tris gel and then transferred to a nitrocellulose membrane. After blocking in 3% BSA in TBST (Tris-buffered Saline with 0.1% Tween-20) for 1 hour at room temperature, membranes were probed with the primary antibody (LS Bio Cat. No. LS-C175665) overnight at 4° C. After incubation with the secondary antibody, the following day membranes were visualized using the SuperSignal™ West Femto substrate (Thermo Fisher Cat. No. 34095). The KRas signal in each lane was normalized to GAPDH and percent degradation was either estimated as less than 25% by visual inspection (C in Table 13) or quantitated relative to the DMSO control lane using BIO-RAD Image Lab 5.2.1, and all data was plotted using GraphPad PRISM 6.07.
DC50 is the half-maximal degradation concentration—i.e., the concentration at which 50% degradation is observed. DMax is the maximum degradation efficacy is achieved—i.e., the maximal degradation observed) degradation data.

Row | SMILES | Percent Degradation at Indicated Concentration (μM) (0.1 μM) | Percent Degradation at Indicated Concentration (μM) (0.3 μM) | Percent Degradation at Indicated Concentration (μM) (1 μM) | Percent Degradation at Indicated Concentration (μM) (0.03 μM) | Dmax
1 | C=CC(=O)N1CCN(c2nc(OC3CCN(CCOCCN4CCN(CC(=O)N[C@H](C(=O)N5C[C@H](O)C[C@H]5C(=O)N[C@@H](C)c5ccc(-c6scnc6C)cc5)C(C)(C)C)CC4)CC3)nc3c(F)c(-c4cc(O)cc5ccccc45)c(Cl)cc23)CC1 [compound 475, (2S,4R)-1-((2S)-2-(2-(4-(2-(2-(4-((4-(4-acryloylpiperazin-1-yl)-6-chloro-8-fluoro-7-(3-hydroxynaphthalen-1-yl)quinazolin-2-yl)oxy)piperidin-1-yl)ethoxy)ethyl)piperazin-1-yl)acetamido)-3,3-dimethylbutanoyl)-4-hydroxy-N-((S)-1-(4-(4-methylthiazol-5-yl)phenyl)ethyl)pyrrolidine-2-carboxamide] | C (Percent Degradation: C ≤ 35) | C (Percent Degradation: C ≤ 35) | C (Percent Degradation: C ≤ 35) | – | –
2 | C=CC(=O)N1CCN(c2nc(OC[C@@H]3C[C@@H](OCCOCCOCCOCCOCCOc4ccc5c(c4)C(=O)N(C4CCC(=O)NC4=O)C5=O)CN3C)nc3c2CCN(c2cccc4ccccc24)C3)C[C@@H]1CC#N (stereo partly drawn) [compound 505, 2-((2S)-1-acryloyl-4-(2-(((2S,4R)-4-((14-((2-(2,6-dioxopiperidin-3-yl)-1,3-dioxoisoindolin-5-yl)oxy)-3,6,9,12-tetraoxatetradecyl)oxy)-1-methylpyrrolidin-2-yl)methoxy)-7-(naphthalen-1-yl)-5,6,7,8-tetrahydropyrido[3,4-d]pyrimidin-4-yl)piperazin-2-yl)acetonitrile] | C (Percent Degradation: C ≤ 35) | C (Percent Degradation: C ≤ 35) | – | C (Percent Degradation: C ≤ 35) | –
3 | C=CC(=O)N1CCN(c2nc(O[C@H](C)CN3CCC(OCCOCCOc4cc(-c5scnc5C)ccc4CNC(=O)[C@@H]4C[C@@H](O)CN4C(=O)[C@@H](c4cc(C)no4)C(C)C)CC3)nc3c2CCN(c2cc(O)cc4ccccc24)C3)CC1 [compound 438] | B (35 < B < 70) | C (Percent Degradation: C ≤ 35) | B (35 < B < 70) | – | –
4 | C=CC(=O)N1CCN(c2nc(O[C@H](C)CN3CCC(OCCOCCOCCOCCOCC(=O)N[C@H](C(=O)N4C[C@H](O)C[C@H]4C(=O)N[C@@H](C)c4ccc(-c5scnc5C)cc4)C(C)(C)C)CC3)nc3c2CCN(c2cc(O)cc4ccccc24)C3)CC1 [compound 409] | C (Percent Degradation: C ≤ 35) | C (Percent Degradation: C ≤ 35) | C (Percent Degradation: C ≤ 35) | – | –
5 | C=CC(=O)N1CCN(c2nc(O[C@H](C)CN3CCC(OCCOc4cc(-c5scnc5C)ccc4CNC(=O)[C@@H]4C[C@@H](O)CN4C(=O)[C@@H](c4cc(C)no4)C(C)C)CC3)nc3c2CCN(c2cc(O)cc4ccccc24)C3)CC1 [compound 436, (2S,4R)-N-(2-(2-((1-((R)-2-((4-(4-acryloylpiperazin-1-yl)-7-(3-hydroxynaphthalen-1-yl)-5,6,7,8-tetrahydropyrido[3,4-d]pyrimidin-2-yl)oxy)propyl)piperidin-4-yl)oxy)ethoxy)-4-(4-methylthiazol-5-yl)benzyl)-4-hydroxy-1-((R)-3-methyl-2-(3-methylisoxazol-5-yl)butanoyl)pyrrolidine-2-carboxamide] | C (Percent Degradation: C ≤ 35) | B (35 < B < 70) | B (35 < B < 70) | – | –
6 | C=CC(=O)N1CCN(c2nc(OC[C@@H]3C[C@@H](OCCOCCOCCOCCNc4cccc5c4C(=O)N(C4CCC(=O)NC4=O)C5=O)CN3C)nc3c2CCN(c2cccc4ccccc24)C3)C[C@@H]1CC#N (stereo partly drawn) [compound 518, 2-((2S)-1-acryloyl-4-(2-(((2S,4R)-4-(2-(2-(2-(2-((2-(2,6-dioxopiperidin-3-yl)-1,3-dioxoisoindolin-4-yl)amino)ethoxy)ethoxy)ethoxy)ethoxy)-1-methylpyrrolidin-2-yl)methoxy)-7-(naphthalen-1-yl)-5,6,7,8-tetrahydropyrido[3,4-d]pyrimidin-4-yl)piperazin-2-yl)acetonitrile] | B (35 < B < 70) | A (A > 70) | C (Percent Degradation: C ≤ 35) | – | ≥ 70%
7 | C=CC(=O)N1CCN(c2nc(O[C@H](C)CN3CCC(OCCOCCOCCOCCOCCNc4cccc5c4C(=O)N(C4CCC(=O)NC4=O)C5=O)CC3)nc3c2CCN(c2cc(O)cc4ccccc24)C3)CC1 (stereo partly shown) [compound 415] | C (Percent Degradation: C ≤ 35) | C (Percent Degradation: C ≤ 35) | C (Percent Degradation: C ≤ 35) | – | –
8 | C=CC(=O)N1CCN(c2nc(O[C@H](C)CN3CCC(OCCOCCOCCOc4cc([C@H](C(=O)N5C[C@H](O)C[C@H]5C(=O)N[C@@H](C)c5ccc(-c6scnc6C)cc5)C(C)C)on4)CC3)nc3c(F)c(-c4cc(O)cc5ccccc45)c(Cl)cc23)CC1 [compound 529, (2S,4R)-1-((2R)-2-(3-(2-(2-(2-((1-((2R)-2-((4-(4-acryloylpiperazin-1-yl)-6-chloro-8-fluoro-7-(3-hydroxynaphthalen-1-yl)quinazolin-2-yl)oxy)propyl)piperidin-4-yl)oxy)ethoxy)ethoxy)ethoxy)isoxazol-5-yl)-3-methylbutanoyl)-4-hydroxy-N-((S)-1-(4-(4-methylthiazol-5-yl)phenyl)ethyl)pyrrolidine-2-carboxamide] | C (Percent Degradation: C ≤ 35) | C (Percent Degradation: C ≤ 35) | – | C (Percent Degradation: C ≤ 35) | –
9 | C=CC(=O)N1CCN(c2nc(O[C@H](C)CN3CCC(OCCOCCOc4cc(-c5scnc5C)ccc4CNC(=O)[C@@H]4C[C@@H](O)CN4C(=O)[C@H](c4cc(C)no4)C(C)C)CC3)nc3c2CCN(c2cc(O)cc4ccccc24)C3)CC1 [compound 439, (2S,4R)-N-(2-(2-(2-((1-((R)-2-((4-(4-acryloylpiperazin-1-yl)-7-(3-hydroxynaphthalen-1-yl)-5,6,7,8-tetrahydropyrido[3,4-d]pyrimidin-2-yl)oxy)propyl)piperidin-4-yl)oxy)ethoxy)ethoxy)-4-(4-methylthiazol-5-yl)benzyl)-4-hydroxy-1-((S)-3-methyl-2-(3-methylisoxazol-5-yl)butanoyl)pyrrolidine-2-carboxamide] | C (Percent Degradation: C ≤ 35) | C (Percent Degradation: C ≤ 35) | C (Percent Degradation: C ≤ 35) | – | –
10 | C=CC(=O)N1CCN(c2nc(O[C@H](C)CN3CCC(OCCOCCOCCOCCOCCOc4ccc5c(c4)C(=O)N(C4CCC(=O)NC4=O)C5=O)CC3)nc3c(F)c(-c4cc(O)cc5ccccc45)c(Cl)cc23)CC1 (stereo partly drawn) [compound 430, 5-((14-((1-((2R)-2-((4-(4-acryloylpiperazin-1-yl)-6-chloro-8-fluoro-7-(3-hydroxynaphthalen-1-yl)quinazolin-2-yl)oxy)propyl)piperidin-4-yl)oxy)-3,6,9,12-tetraoxatetradecyl)oxy)-2-(2,6-dioxopiperidin-3-yl)isoindoline-1,3-dione] | C (Percent Degradation: C ≤ 35) | C (Percent Degradation: C ≤ 35) | C (Percent Degradation: C ≤ 35) | – | –
11 | C=CC(=O)N1CCN(c2nc(O[C@H](C)CN3CCC(OCCOCCOCCOCCOCCOc4ccc5c(c4)CN(C4CCC(=O)NC4=O)C5=O)CC3)nc3c2CCN(c2cc(O)cc4ccccc24)C3)CC1 (stereo partly drawn) [compound 425, 3-(5-((14-((1-((R)-2-((4-(4-acryloylpiperazin-1-yl)-7-(3-hydroxynaphthalen-1-yl)-5,6,7,8-tetrahydropyrido[3,4-d]pyrimidin-2-yl)oxy)propyl)piperidin-4-yl)oxy)-3,6,9,12-tetraoxatetradecyl)oxy)-1-oxoisoindolin-2-yl)piperidine-2,6-dione] | C (Percent Degradation: C ≤ 35) | C (Percent Degradation: C ≤ 35) | C (Percent Degradation: C ≤ 35) | – | –
